According to the NIST ThermoML archive (doi:10.1016/j.fluid.2008.01.024):
± gives the expanded uncertainty stated by the source.

Columns and labels:
[1] = relative permittivity at zero frequency (dimensionless); details: 303.15 K; 101 kPa; Liquid; capacitive measurement method
[2] = relative permittivity at zero frequency (dimensionless); xn = mol fraction of the nth substance listed; details: 303.15 K, 101 kPa, Liquid, capacitive measurement method

CN(C)CCO [2-(N,N-dimethylamino)ethanol]
relative permittivity at zero frequency [1]: 17.18 ± 0.1

CN(C)CCO [2-(N,N-dimethylamino)ethanol] + OCC(O)CO
relative permittivity at zero frequency ([2]; x2 = 0): 17.18 ± 0.1
relative permittivity at zero frequency ([2]; x2 = 0.09): 18.66 ± 0.11
relative permittivity at zero frequency ([2]; x2 = 0.175): 20.4 ± 0.12
relative permittivity at zero frequency ([2]; x2 = 0.257): 22.09 ± 0.13
relative permittivity at zero frequency ([2]; x2 = 0.334): 23.83 ± 0.14
relative permittivity at zero frequency ([2]; x2 = 0.409): 25.5 ± 0.15
relative permittivity at zero frequency ([2]; x2 = 0.48): 27.25 ± 0.16
relative permittivity at zero frequency ([2]; x2 = 0.547): 28.98 ± 0.17
relative permittivity at zero frequency ([2]; x2 = 0.612): 30.54 ± 0.18
relative permittivity at zero frequency ([2]; x2 = 0.675): 32.59 ± 0.2
relative permittivity at zero frequency ([2]; x2 = 0.734): 33.74 ± 0.2
relative permittivity at zero frequency ([2]; x2 = 0.792): 35.03 ± 0.21
relative permittivity at zero frequency ([2]; x2 = 0.847): 37.13 ± 0.22
relative permittivity at zero frequency ([2]; x2 = 0.9): 38.63 ± 0.23
relative permittivity at zero frequency ([2]; x2 = 0.951): 39.96 ± 0.24

CN(C)C=O [dimethylformamide]
relative permittivity at zero frequency [1]: 36.55 ± 0.22

CN(C)C=O [dimethylformamide] + OCC(O)CO
relative permittivity at zero frequency ([2]; x2 = 0): 36.55 ± 0.22

NC=O [formamide]
relative permittivity at zero frequency [1]: 106.14 ± 0.64

NC=O [formamide] + OCC(O)CO
relative permittivity at zero frequency ([2]; x2 = 0): 106.14 ± 0.64
relative permittivity at zero frequency ([2]; x2 = 0.037): 103.13 ± 0.62
relative permittivity at zero frequency ([2]; x2 = 0.077): 100.3 ± 0.6
relative permittivity at zero frequency ([2]; x2 = 0.12): 96.91 ± 0.58
relative permittivity at zero frequency ([2]; x2 = 0.165): 93.46 ± 0.56
relative permittivity at zero frequency ([2]; x2 = 0.214): 89.87 ± 0.54
relative permittivity at zero frequency ([2]; x2 = 0.266): 85.74 ± 0.51
relative permittivity at zero frequency ([2]; x2 = 0.322): 81.37 ± 0.49
relative permittivity at zero frequency ([2]; x2 = 0.383): 76.3 ± 0.46
relative permittivity at zero frequency ([2]; x2 = 0.449): 71.94 ± 0.43
relative permittivity at zero frequency ([2]; x2 = 0.521): 66.48 ± 0.4
relative permittivity at zero frequency ([2]; x2 = 0.599): 61.52 ± 0.37
relative permittivity at zero frequency ([2]; x2 = 0.685): 56.42 ± 0.34
relative permittivity at zero frequency ([2]; x2 = 0.779): 50.76 ± 0.3
relative permittivity at zero frequency ([2]; x2 = 0.884): 45.45 ± 0.27
